{"source": "patent US20050112555A1", "about": "“Cytidine deaminase activators, deoxycytidine deaminase activators, Vif antagonists, and methods of screening for molecules thereof” (priority 2003, published 2005)", "tested_on": "intracellular CEM15", "experiment": "Western blot of CEM15 abundance after co-expression of CEM15 and Vif in 293T cells", "format": "cell-based, human", "settings": "within 36-48 h post-transfection", "excerpt": "CEM15 abundance can be quantified by western blotting as described above. Small molecules that bind to any of the aforementioned peptides can be evaluated for their ability to protect or restore CEM15 abundance using the aforementioned western blotting systems of whole cell extracts of cells that have been transfected with CEM15 and Vif wherein these proteins are co-expressed in 293T cells (conditions that result in CEM15 destruction) and evaluated (by western blotting of cell extracts) for the ability of VDA peptides of varying size and sequence to restore CEM15 abundance. Co-expression of CEM15 and Vif by transfection in 293T cells results ˜99% ablation of intracellular CEM15 within 36-48 h post-transfection. […] All peptides are tested according to this schedule. Expression of CEM15 and Vif are driven from the CMV promoter of pcDNA3 plasmids.", "data": [{"substance": "Vif: HIV-1 viral infectivity factor, SEQ ID NO: 7; induces degradation of CEM15", "values": [{"measurement": "ablation of intracellular CEM15", "value": "~99", "unit": "%"}]}]}
